Activity calls are given as the source filed them. No cut-off for these calls is given here.
Assays:
Type in all cases: functional
[1] = test system: Lactobacillus leichmannii; experiment: Inhibition index, ratio of antifolate activity against Lactobacillus leichmannii in presence of 0.02 ug/ml of folinic acid to antifolate activity against Lactobacillus leichmannii absence of folinic acid
[2] = Antifolate activity against Lactobacillus leichmannii at 150 ug/ml in presence of 0.02 ug/ml of folinic acid and 250 ug/ml riboflavin
[3] = test system: Lactobacillus leichmannii; experiment: Inhibition index, ratio of antifolate activity against Lactobacillus leichmannii in presence of 250 ug/ml of riboflavin to antifolate activity against Lactobacillus leichmannii absence of riboflavin
[4] = Antifolate activity against Lactobacillus leichmannii at 20 ug/ml
[5] = Antifolate activity against Lactobacillus leichmannii at 20 to 60 ug/ml in presence of 0.02 ug/ml of folinic acid
[6] = Antifolate activity against Lactobacillus leichmannii at 7 ug/ml

Which results are given for `Cc1cc2nc3c(N)nc(=N)nc-3n(C[C@H](O)[C@H](O)[C@H](O)CO)c2cc1C`?
Ratio [1]: 6000; growth inhibition (GI) [2]: inactive; Ratio [3]: 1.5; growth inhibition (GI) [4]: Active; growth inhibition (GI) [5]: inactive; growth inhibition (GI) [6]: Active
